For 10 compounds, inhibition results are on record in ChEMBL document CHEMBL4052767, “Discovery of a potent angiotensin converting enzyme inhibitor via virtual screening” (Bioorg Med Chem Lett, 2017).

The target of the assay is Angiotensin-converting enzyme (Homo sapiens) (UniProt P12821). The experiment in a line: Inhibition of recombinant human ACE at 100 uM using Mca-R-P-PG-F-S-A-F-K(Dnp)-OH as substrate measured every 2 mins for 8 mins by fluorescence assay.
Chain of Angiotensin-converting enzyme (Homo sapiens) (P12821 whole entry): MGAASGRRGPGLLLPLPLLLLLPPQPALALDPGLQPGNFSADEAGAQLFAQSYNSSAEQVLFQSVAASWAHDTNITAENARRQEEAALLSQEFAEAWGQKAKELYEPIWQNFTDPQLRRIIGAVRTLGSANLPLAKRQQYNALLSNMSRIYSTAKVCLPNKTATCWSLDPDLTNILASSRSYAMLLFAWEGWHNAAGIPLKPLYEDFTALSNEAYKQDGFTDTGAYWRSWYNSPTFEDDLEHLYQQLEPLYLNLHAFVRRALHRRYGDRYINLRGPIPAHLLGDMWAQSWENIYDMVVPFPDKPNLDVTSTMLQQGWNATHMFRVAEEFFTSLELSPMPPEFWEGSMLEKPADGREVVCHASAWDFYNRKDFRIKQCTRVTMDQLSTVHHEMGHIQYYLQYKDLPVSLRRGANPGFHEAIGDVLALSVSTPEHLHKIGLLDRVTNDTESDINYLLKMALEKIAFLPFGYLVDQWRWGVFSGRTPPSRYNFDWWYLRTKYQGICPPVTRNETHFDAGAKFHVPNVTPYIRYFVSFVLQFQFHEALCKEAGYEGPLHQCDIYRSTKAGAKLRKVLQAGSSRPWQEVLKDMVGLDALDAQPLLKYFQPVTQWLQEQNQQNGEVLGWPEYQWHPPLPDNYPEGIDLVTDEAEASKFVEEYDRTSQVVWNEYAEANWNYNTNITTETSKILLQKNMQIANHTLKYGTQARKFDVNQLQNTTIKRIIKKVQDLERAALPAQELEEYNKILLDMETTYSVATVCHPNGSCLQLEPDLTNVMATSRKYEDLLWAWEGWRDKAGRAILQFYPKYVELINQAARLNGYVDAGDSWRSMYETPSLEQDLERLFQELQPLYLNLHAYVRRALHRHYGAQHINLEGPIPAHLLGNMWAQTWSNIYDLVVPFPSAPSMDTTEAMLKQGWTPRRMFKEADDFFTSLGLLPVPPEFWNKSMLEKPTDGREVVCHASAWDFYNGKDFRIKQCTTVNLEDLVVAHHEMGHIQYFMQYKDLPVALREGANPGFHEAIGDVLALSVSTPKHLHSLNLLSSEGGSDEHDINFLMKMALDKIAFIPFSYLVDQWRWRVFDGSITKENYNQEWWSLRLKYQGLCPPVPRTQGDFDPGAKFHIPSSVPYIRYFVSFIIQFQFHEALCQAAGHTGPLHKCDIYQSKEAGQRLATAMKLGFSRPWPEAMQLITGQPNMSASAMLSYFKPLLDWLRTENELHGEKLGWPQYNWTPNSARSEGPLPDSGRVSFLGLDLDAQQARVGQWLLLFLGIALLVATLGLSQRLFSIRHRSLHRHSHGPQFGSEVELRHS
For `C[C@]1(O)C[C@@H](O)[C@]2(O)C=CO[C@@H](O[C@@H]3O[C@H](CO)[C@@H](O)[C@H](O)[C@H]3O)[C@@H]21`, the inhibition – broadly, the relative decrease from the control value, in per cent – worked out at 14.8%.

On to `COc1cc(O)ccc1/C=C/C(=O)c1ccc(O)cc1`, for which the inhibition was determined as 72.5%.

As for `COc1ccc(/C=C/c2cc(O)cc(O[C@@H]3O[C@H](CO)[C@@H](O)[C@H](O)[C@H]3O)c2)cc1O`, the inhibition worked out at 18.2%.

For `C[C@@H]1CC[C@H]2[C@@H](C)C(=O)O[C@@H]3O[C@@]4(C)CC[C@@H]1[C@]32OO4`, the inhibition amounted to 17.1%.

Turning to `O=C(O[C@@H]1Cc2c(O)cc(O)cc2O[C@@H]1c1cc(O)c(O)c(O)c1)c1cc(O)c(O)c(O)c1`, the inhibition stood at 82%.

On to `C=CC(C)(C)c1cc(/C=C/C(=O)c2ccc(O)cc2)c(OC)cc1O`, for which the inhibition was found to be 111%.

Consider `C[C@@H]1O[C@@H](Oc2cc(O)c3c(=O)c(O)c(-c4ccc(O)cc4)oc3c2O)[C@H](O)[C@H](O)[C@H]1O`, for which the inhibition was determined as 17.2%.

For the compound `COc1cc(C=O)ccc1O`, the inhibition turned out to be 41.5%.

With `CC[C@H]1CN2CC[C@]3(C(=O)Nc4ccccc43)[C@@H]2C[C@@H]1/C(=C\OC)C(=O)OC`, the inhibition came out at 10%.

For `OC[C@H]1O[C@@H](Oc2cc(O)cc(/C=C/c3ccc(O)cc3)c2)[C@H](O)[C@@H](O)[C@@H]1O`, the inhibition is 8.9%.
